Data: US9187472B2 (AbbVie Inc., priority 2012, dated 2015)
pIC50: −log10 of the molar value.

Columns and labels:
[1] = biological target: NAMPT (human, recombinant, C-terminally His-tagged) (Homo sapiens, UniProt P43490); test: Time-Resolved Fluorescence Resonance Energy Transfer (TR-FRET) Binding Assay of NAMPT; settings: without substrates; 6.8 nM NAMPT, 200 nM probe, 3 hours equilibration
In short: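 Read-out is the time-resolved FRET ratio Em520/Em495 (excitation 337 nm) between a terbium anti-His antibody (1 nM) on the enzyme and an Oregon Green 488-labelled nicotinamide-competitive inhibitor probe (200 nM). Enzyme was 6.8 nM, DMSO 2%, pH 7.5 HEPES buffer; 3 h room-temperature equilibration preceded reading.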

PC3 cells = test: NAMPT Cell Proliferation Assay; type: cell-based; settings: Homo sapiens, PC-3, 120 h, 5 days incubation, cell viability by Cell Titer Glo
In short: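 Following overnight attachment in RPMI with 10% heat-inactivated FBS, PC3 cells at 500 per well receive compounds spanning 10 μM down to 1×10^−5 μM. Growth is assessed by luminescent viability read after 5 days.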

NAMPT = NAMPT (Homo sapiens, UniProt P43490); test: TR-FRET Binding Assay of NAMPT with PRPP; settings: with 200 μM PRPP and 2.5 mM ATP; 2 nM NAMPT, 2 nM probe, 16 hours equilibration
NAMPT, sequence (P43490 whole entry): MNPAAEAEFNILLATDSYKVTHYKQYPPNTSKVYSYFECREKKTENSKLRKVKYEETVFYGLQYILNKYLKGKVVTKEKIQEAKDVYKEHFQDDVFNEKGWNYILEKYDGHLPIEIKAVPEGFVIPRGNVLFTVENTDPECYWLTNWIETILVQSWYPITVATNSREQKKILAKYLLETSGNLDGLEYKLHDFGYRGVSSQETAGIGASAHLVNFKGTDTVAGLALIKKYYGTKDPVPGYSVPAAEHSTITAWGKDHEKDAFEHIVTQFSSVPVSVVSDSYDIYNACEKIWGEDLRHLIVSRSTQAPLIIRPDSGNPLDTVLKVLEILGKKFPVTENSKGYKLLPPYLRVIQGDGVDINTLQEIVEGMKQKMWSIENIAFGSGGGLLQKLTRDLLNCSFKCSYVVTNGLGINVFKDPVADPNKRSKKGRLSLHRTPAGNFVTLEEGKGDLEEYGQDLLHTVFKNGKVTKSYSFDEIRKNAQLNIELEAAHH
In short: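 NAMPT 2 nM + probe 2 nM + Tb-anti-His Ab 1 nM; PRPP 200 μM, ATP 2.5 mM, DMSO 2%; 16 h equilibration before TR-FRET read.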

NAMPT (human, recombinant, C-terminally His-tagged), sequence (P43490 whole entry): as above

SMILES	pIC50 [1]	pIC50 (PC3 cells)	pIC50 (NAMPT)
CC(C)CC(=O)N1CCC(O)(c2ccc(C(=O)NCc3ccn4ccnc4c3)s2)CC1 [Example 553, 5-[4-hydroxy-1-(3-methylbutanoyl)piperidin-4-yl]-N-(imidazo[1,2-a]pyridin-7-ylmethyl)thiophene-2-carboxamide]	6.32	6.99	9.23
CC(C)(C)CC(=O)N1CCC(O)(c2ccc(C(=O)NCc3ccn4ccnc4c3)s2)CC1 [Example 555, 5-[1-(3,3-dimethylbutanoyl)-4-hydroxypiperidin-4-yl]-N-(imidazo[1,2-a]pyridin-7-ylmethyl)thiophene-2-carboxamide]	6.37	7.48	9.13
CC(C)(C)OC(=O)N1CCC(c2ccc(C(=O)NCc3ccn4ncnc4c3)cc2)CC1 [Example 563, tert-butyl 4-{4-[([1,2,4]triazolo[1,5-a]pyridin-7-ylmethyl)carbamoyl]phenyl}piperidine-1-carboxylate]	6.49	5.29	8.38
O=C(CC1CCCC1)Nc1ccc(NC(=O)NCc2ccn3ncnc3c2)cc1 [Example 564, 2-cyclopentyl-N-(4-{[([1,2,4]triazolo[1,5-a]pyridin-7-ylmethyl)carbamoyl]amino}phenyl)acetamide]	7.62	6.68	8.46
CC(C)(C)OC(=O)N1CCC(c2ccc(NC(=O)NCc3ccn4ncnc4c3)cc2)CC1 [Example 565, tert-butyl 4-(4-{[([1,2,4]triazolo[1,5-a]pyridin-7-ylmethyl)carbamoyl]amino}phenyl)piperidine-1-carboxylate]	6.67	6.05	8.27
O=C(NCc1ccn2ccnc2c1)c1ccc(C2CN(S(=O)(=O)c3ccccc3)C2)cc1 [Example 569, N-(imidazo[1,2-a]pyridin-7-ylmethyl)-4-[1-(phenylsulfonyl)azetidin-3-yl]benzamide]	6.66	6.65	9.17
CC(C)OC(=O)N1CCC(c2ccc(C(=O)NCc3ccn4ccnc4c3)s2)CC1 [Example 570, propan-2-yl-4-{5-[(imidazo[1,2-a]pyridin-7-ylmethyl)carbamoyl]thiophen-2-yl}piperidine-1-carboxylate]	7.15	8.13	9.12
CC(C)COC(=O)N1CCC(c2ccc(C(=O)NCc3ccn4ccnc4c3)s2)CC1 [Example 571, 2-methylpropyl 4-{5-[(imidazo[1,2-a]pyridin-7-ylmethyl)carbamoyl]thiophen-2-yl}piperidine-1-carboxylate]	7.38	7.64	9.31
O=C(NCc1ccn2ccnc2c1)c1ccc(C2CCN(C(=O)CC(F)(F)F)CC2)s1 [Example 572, N-(imidazo[1,2-a]pyridin-7-ylmethyl)-5-[1-(3,3,3-trifluoropropanoyl)piperidin-4-yl]thiophene-2-carboxamide]	7.29	8.18	9.39
CC(C)CS(=O)(=O)N1CCC(c2ccc(C(=O)NCc3ccn4ccnc4c3)s2)CC1 [Example 573, N-(imidazo[1,2-a]pyridin-7-ylmethyl)-5-{1-[(2-methylpropyl)sulfonyl]piperidin-4-yl}thiophene-2-carboxamide]	7.62	8.43	9.39
O=C(NCc1ccn2ccnc2c1)c1ccc(C2CCN(C(=O)CCC(F)(F)F)CC2)s1 [Example 574, N-(imidazo[1,2-a]pyridin-7-ylmethyl)-5-[1-(4,4,4-trifluorobutanoyl)piperidin-4-yl]thiophene-2-carboxamide]	7.01	8.28	9.30
CC(C)C(=O)N1CCC(c2ccc(C(=O)NCc3ccn4c(Cl)cnc4c3)cc2)CC1 [Example 575, N-[(3-chloroimidazo[1,2-a]pyridin-7-yl)methyl]-4-[1-(2-methylpropanoyl)piperidin-4-yl]benzamide]	5.49	< 5.00	7.97

Results, then the molecule that gave them:

pIC50 [1]	pIC50 (PC3 cells)	pIC50 (NAMPT)	SMILES
6.30	7.59	9.37	CC[C@H](C)C(=O)N1CC(c2ccc(C(=O)NCc3ccn4ccnc4c3)cc2)C1 [Example 547, N-(imidazo[1,2-a]pyridin-7-ylmethyl)-4-{1-[(2S)-2-methylbutanoyl]azetidin-3-yl}benzamide]
6.40	7.13	9.33	O=C(NCc1ccn2ccnc2c1)c1ccc(C2CN(C(=O)CC3CC3)C2)cc1 [Example 548, 4-[1-(cyclopropylacetyl)azetidin-3-yl]-N-(imidazo[1,2-a]pyridin-7-ylmethyl)benzamide]
7.09	8.03	9.65	O=C(NCc1ccn2ccnc2c1)c1ccc(C2CN(C(=O)c3ccccc3)C2)cc1 [Example 549, 4-(1-benzoylazetidin-3-yl)-N-(imidazo[1,2-a]pyridin-7-ylmethyl)benzamide]
6.12	6.76	9.37	CC(C)(O)C(=O)N1CC(c2ccc(C(=O)NCc3ccn4ccnc4c3)cc2)C1 [Example 550, 4-[1-(2-hydroxy-2-methylpropanoyl)azetidin-3-yl]-N-(imidazo[1,2-a]pyridin-7-ylmethyl)benzamide]
6.15	7.26	9.41	O=C(NCc1ccn2ccnc2c1)c1ccc(C2CN(C(=O)CC3CCOCC3)C2)cc1 [Example 551, N-(imidazo[1,2-a]pyridin-7-ylmethyl)-4-[1-(tetrahydro-2H-pyran-4-ylacetyl)azetidin-3-yl]benzamide]
6.74	7.37	9.27	O=C(NCc1ccn2ccnc2c1)c1ccc(C2CN(C(=O)c3cccs3)C2)cc1 [Example 552, N-(imidazo[1,2-a]pyridin-7-ylmethyl)-4-[1-(thiophen-2-ylcarbonyl)azetidin-3-yl]benzamide]
6.35	6.75	9.08	CC(C)C(=O)N1CCC(O)(c2ccc(C(=O)NCc3ccn4ccnc4c3)s2)CC1 [Example 554, 5-[4-hydroxy-1-(2-methylpropanoyl)piperidin-4-yl]-N-(imidazo[1,2-a]pyridin-7-ylmethyl)thiophene-2-carboxamide]
8.27	8.18	9.39	O=C(NCc1ccn2ccnc2c1)c1ccc(C2(O)CCN(C(=O)c3ccccc3)CC2)s1 [Example 556, 5-(1-benzoyl-4-hydroxypiperidin-4-yl)-N-(imidazo[1,2-a]pyridin-7-ylmethyl)thiophene-2-carboxamide]
6.78	7.43	9.44	CC(C)S(=O)(=O)N1CC(c2ccc(C(=O)NCc3ccn4ccnc4c3)cc2)C1 [Example 557, N-(imidazo[1,2-a]pyridin-7-ylmethyl)-4-[1-(propan-2-ylsulfonyl)azetidin-3-yl]benzamide]
5.85	5.93	9.45	CC(C)C(=O)N1CC(Oc2ccc(C(=O)NCc3ccn4ccnc4c3)cc2)C1 [Example 558, N-(imidazo[1,2-a]pyridin-7-ylmethyl)-4-{[1-(2-methylpropanoyl)azetidin-3-yl]oxy}benzamide]
6.17	7.03	9.65	CC[C@H](C)C(=O)N1CC(Oc2ccc(C(=O)NCc3ccn4ccnc4c3)cc2)C1 [Example 559, N-(imidazo[1,2-a]pyridin-7-ylmethyl)-4-({1-[(2S)-2-methylbutanoyl]azetidin-3-yl}oxy)benzamide]
6.01	6.07	9.51	O=C(NCc1ccn2ccnc2c1)c1ccc(OC2CN(C(=O)CC3CC3)C2)cc1 [Example 560, 4-{[1-(cyclopropylacetyl)azetidin-3-yl]oxy}-N-(imidazo[1,2-a]pyridin-7-ylmethyl)benzamide]
6.06	6.62	9.47	O=C(NCc1ccn2ccnc2c1)c1ccc(OC2CN(C(=O)c3ccccc3)C2)cc1 [Example 561, 4-[(1-benzoylazetidin-3-yl)oxy]-N-(imidazo[1,2-a]pyridin-7-ylmethyl)benzamide]
6.66	7.15	9.22	O=C(NCc1ccn2ccnc2c1)c1ccc(C2CCN(C(=O)c3ccc(F)cc3)C2)cc1 (stereo not drawn) [Example 562, 4-[1-(4-fluorobenzoyl)pyrrolidin-3-yl]-N-(imidazo[1,2-a]pyridin-7-ylmethyl)benzamide]
< 5.00	< 5.00	6.67	O=C(NCc1ccn2ccnc2c1)c1ccc(C(=O)N2CCCCC2)cc1 [Example 566, N-(imidazo[1,2-a]pyridin-7-ylmethyl)-4-(piperidin-1-ylcarbonyl)benzamide]
6.39	6.63	8.95	CCS(=O)(=O)N1CC(c2ccc(C(=O)NCc3ccn4ccnc4c3)cc2)C1 [Example 567, 4-[1-(ethylsulfonyl)azetidin-3-yl]-N-(imidazo[1,2-a]pyridin-7-ylmethyl)benzamide]
6.43	6.74	9.14	O=C(NCc1ccn2ccnc2c1)c1ccc(C2CN(S(=O)(=O)C3CC3)C2)cc1 [Example 568, 4-[1-(cyclopropylsulfonyl)azetidin-3-yl]-N-(imidazo[1,2-a]pyridin-7-ylmethyl)benzamide]
